Read-outs that look alike come from different tables or passages of the source. Blank lines part the entries; values can stand above or below the compound they belong to.
Tests used:
mGluR4 = mGluR4 (UniProt Q14833); assay: mGluR4 potentiation assay (activity table; fluorescence plate reader, compound then EC20 agonist); format: cell-based; details: for % GluMax: maximum extent of potentiation; for EC50: potentiation of mGluR4, species of receptor not given
Experimental: The disclosed compounds and compositions can be evaluated for their ability to act as a potentiator of metabotropic glutamate receptor activity, in particular mGluR4 activity, by any suitable known methodology known in the art. For example, Chinese Hamster Ovary (CHO) cells transfected with human mGluR4 or HEK cells co-transfected with rat mGluR4 and the G-protein regulated Inwardly Rectifying Potassium channel (GIRK) were plated in clear bottom assay plates for assay in a Hamamatsu FDSS Fluorometric Plate Reader. The cells were loaded with either a Ca2+-sensitive fluorescent dye Fluo-4 or the thallium responsive dye BTC, AM and the plates were washed and placed into a suitablekinetic plate reader. For human mGluR4 assays, a fluorescence baseline was established for 3-5 seconds, the disclosed compounds were then added to the cells, and the response in cells was measured. Approximately two and a half minutes later, a concentration of mGluR4 orthosteric agonist (e.g. glutamate or L-AP4) eliciting approximately 20% (EC20) of the maximal agonist response was added to the cells, and the response was measured. Two minutes later, a concentration of mGluR4 agonist (e.g. glutamate or L-AP4) eliciting 80% (EC80) of the maximal agonist response was added to the cells, and the response was measured. For rat mGluR4/GIRK experiments, a baseline was established for approximately five seconds, disclosed compounds were added, and either an EC20 or EC80 concentration of agonist was added approximately two and one half minutes later. Potentiation of the agonist response of mGluR4 by the disclosed compounds was observed as an increase in response to the EC20 concentration of agonist in the presence of compound compared to the response to agonist in the absence of compound. Similarly, antagonism of the agonist response of mGluR4 by the disclosed compounds was observed as a decrease in response to the EC80 concentration of agonist in the presence of compound compared to the response to agonist in the absence of compound.
The above described assay operated in two modes. In the first mode, a range of concentrations of the disclosed compounds are added to cells, followed by a single fixed concentration of agonist. If the compound acts as a potentiatior, an EC50 value for potentiation and a maximum extent of potentiation by the compound at this concentration of agonist is determined by non-linear curve fitting. If the compound acts as a noncompetitive antagonist, an IC50 value is determined by non-linear curve fitting. In the second mode, several fixed concentrations of the disclosed compounds are added to various wells on a plate, followed by a range in concentrations of agonist for each concentration of disclosed compound. The EC50 values for the agonist at each concentration of compound are determined by non-linear curve fitting. A decrease in the EC50 value of the agonist with increasing concentrations of the sample compound (a leftward shift of the agonist concentration-response curve) is an indication of the degree of mGluR4 potentiation at a given concentration of the sample compound. A decrease in the maximal response of the agonist with increasing concentrations of the sample compounds, with or without a rightward shift in agonist potency, is an indication of the degree of noncompetitive antagonism at mGluR4. The second mode also indicates whether the sample compounds also affect the maximum response to mGluR4 to agonists.
These compounds are positive allosteric modulators (potentiators) of human and rat mGluR4 and were selective for mGluR4 compared to the other seven subtypes of metabotropic glutamate receptors.

[1] = intraperitoneal pharmacokinetics in male SD rats (plasma and brain); format: in vivo, rat; set-up: AUC(0-8) Brain: unit not given here; details: 10 mg/kg ip; for AUC(0-8) Brain / AUC(0-t): 0-8 h; for Log BB: brain/plasma
Experimental: FIG. 2 is a graph showing intraperitoneal pharmacokinetics of a compound of the present invention in male SD rats (N=3); Formulation: 10% tween 80 microsuspension; Dose: 10 mg/kg; Time points: 0.5 h, 1 h, 2 h, 4 h & 8 h; data are summarized in Table 1 and Table 2.
FIG. 3 is a graph showing intraperitoneal pharmacokinetics of a compound of the present invention in male SD rats (˜300 g); Dose:10 mg/kg, ip; Time points: 0.5 h, 1 h & 8 h (n=3); data are summarized in Table 1 and Table 2.
FIG. 4 is a graph showing intraperitoneal pharmacokinetics of a compound of the present invention in male SD rats (˜300 g); Dose:10 mg/kg, ip; Time points: 0.5 h, 1 h & 8 h (n=3); data are summarized in Table 1 and Table 2.
Additionally, certain exemplary disclosed compounds were evaluated for pharmacokinetic efficacy.

[2] = rat, brain, read-out: Elimination T1/2 Brain (converted)
[3] = rat, brain, read-out: Tmax Brain
[4] = rat, plasma, read-out: Elimination T1/2 Plasma (converted)
[5] = rat, plasma, read-out: Tmax Plasma

% GluMax (mGluR4): 216% | EC50 (mGluR4): 142 nM
SMILES: O=C(Nc1ccc(N2S(=O)(=O)c3ccccc3S2(=O)=O)cc1)c1nccs1 [Example 7, N-(4-(1,1,3,3-tetraoxidobenzo[d][1,3,2]dithiazol-2-yl)phenyl)thiazole-2-carboxamide]

% GluMax (mGluR4): 247% | EC50 (mGluR4): 286 nM
SMILES: O=C(Nc1ccc(N2S(=O)(=O)c3ccccc3S2(=O)=O)cc1)c1ccncn1 [Example 6, N-(4-(1,1,3,3-tetraoxidobenzo[d][1,3,2]dithiazol-2-yl)phenyl)pyrimidine-4-carboxamide]

% GluMax (mGluR4): 69% | EC50 (mGluR4): 49.6 nM
SMILES: O=C(Nc1ccc(N2S(=O)(=O)c3ccccc3S2(=O)=O)cc1)c1ncccc1F [Example 8, 3-Fluoro-N-(4-(1,1,3,3-tetraoxidobenzo[d][1,3,2]dithiazol-2-yl)phenyl)picolinamide]

% GluMax (mGluR4): 254% | EC50 (mGluR4): 38.1 nM
SMILES: O=C(Nc1ccc(N2S(=O)(=O)c3ccccc3S2(=O)=O)cc1)c1ccccn1 [Example 4, N-(4-(1,1,3,3-tetraoxidobenzo[d][1,3,2]dithiazol-2-yl)phenyl)picolinamide]

V/F [1]: 1.49 L | Cmax Brain ([1]; brain): 2842.81 ± 544.93 ng/mL or g | AUC(0-8) Brain ([1]; brain): 12937.04 ± 2079.74 | Log BB [1]: −0.19 | half-life [1, 2]: 3.79 h | Tmax [1, 3]: 1 h | Cmax ([1]; rat, plasma): 5690 ± 1360 ng/mL | AUC(0-t) ([1]; rat, plasma): 20500 ± 5180 ng·h/mL | half-life [1, 4]: 2.39 h | Tmax [1, 5]: 1 h | CL/F ([1]; rat, plasma): 7.16 mL/min/kg
SMILES: O=C(Nc1ccc(N2S(=O)(=O)c3ccccc3S2(=O)=O)cc1)c1ccco1 [drawing 140]

% GluMax (mGluR4): 198% | EC50 (mGluR4): 179 nM
SMILES: O=C(Nc1ccc(N2S(=O)(=O)c3ccccc3S2(=O)=O)cc1)c1cccc(F)n1 [Example 5, 6-Fluoro-N-(4-(1,1,3,3-tetraoxidobenzo[d][1,3,2]dithiazol-2-yl)phenyl)picolinamide]

% GluMax (mGluR4): 231% | EC50 (mGluR4): 68.8 nM
SMILES: O=C(Nc1ccc(N2S(=O)(=O)c3ccccc3S2(=O)=O)cc1)c1cscn1 [Example 10, N-(4-(1,1,3,3-tetraoxidobenzo[d][1,3,2]dithiazol-2-yl)phenyl)thiazole-4-carboxamide]

% GluMax (mGluR4): 284% | EC50 (mGluR4): 50 nM
SMILES: O=C(Nc1ccc(N2S(=O)(=O)c3ccccc3S2(=O)=O)cc1)c1ccco1 [Example 2, N-(4-(1,1,3,3-tetraoxidobenzo[d][1,3,2]dithiazol-2-yl)phenyl)furan-2-carboxamide]

Second part, the compound before the results:

SMILES: O=C(Nc1ccc(N2S(=O)(=O)c3ccccc3S2(=O)=O)cc1F)c1ccccn1 [Example 13, N-(2-fluoro-4-(1,1,3,3-tetraoxidobenzo[d][1,3,2]dithiazol-2-yl)phenyl)picolinamide]
% GluMax (mGluR4): 62% | EC50 (mGluR4): 739 nM

SMILES: O=C(Nc1ccc(N2S(=O)(=O)c3ccccc3S2(=O)=O)cc1)C1CCCCC1 [Example 3, N-(4-(1,1,3,3-tetraoxidobenzo[d][1,3,2]dithiazol-2-yl)phenyl)cyclohexanecarboxamide]
% GluMax (mGluR4): 96% | EC50 (mGluR4): 128 nM

SMILES: O=S1(=O)c2ccccc2S(=O)(=O)N1c1ccc(NCc2ccccn2)cc1 [Example 16, 2-(4-((pyridine-2-ylmethyl)amino)phenyl)benzo[d][1,3,2]dithiazole-1,1,3,3-tetraoxide]
% GluMax (mGluR4): 161% | EC50 (mGluR4): 2140 nM

SMILES: O=C(Nc1ccccn1)c1ccc(N2S(=O)(=O)c3ccccc3S2(=O)=O)cc1 [Example 14, N-(pyridin-2-yl)-4-(1,1,3,3-tetraoxidobenzo[d][1,3,2]dithiazol-2-yl)benzamide]
% GluMax (mGluR4): 39% | EC50 (mGluR4): 113 nM

SMILES: O=C(Nc1ccc(N2S(=O)(=O)c3ccccc3S2(=O)=O)cc1)c1ccccc1 [Example 1, N-(4-(1,1,3,3-tetraoxidobenzo[d][1,3,2]dithiazol-2-yl)phenyl)benzamide]
% GluMax (mGluR4): 146% | EC50 (mGluR4): 203 nM

SMILES: O=S1(=O)c2ccccc2S(=O)(=O)N1c1ccc(NC2(c3ccccn3)CC2)cc1 [Example 17]
% GluMax (mGluR4): 165% | EC50 (mGluR4): 134 nM

SMILES: O=C(Nc1ccc(N2S(=O)(=O)c3ccccc3S2(=O)=O)cc1F)c1ccco1 [Example 12, N-(2-fluoro-4-(1,1,3,3-tetraoxidobenzo[d][1,3,2]dithiazol-2-yl)phenyl)furan-2-carboxamide]
% GluMax (mGluR4): 125% | EC50 (mGluR4): 9130 nM

SMILES: O=C(Nc1ccc(N2S(=O)(=O)c3ccccc3S2(=O)=O)cc1)C1CCCCO1 (centres unmarked) [Example 9, N-(4-(1,1,3,3-tetraoxidobenzo[d][1,3,2]dithiazol-2-yl)phenyl)tetrahydro-2H-pyran-2-carboxamide]
% GluMax (mGluR4): 166% | EC50 (mGluR4): 914 nM

SMILES: O=C(Nc1ccc(N2S(=O)(=O)c3ccccc3S2(=O)=O)cc1)c1ncc(F)cc1F [Example 11, 3,5-Difluoro-N-(4-(1,1,3,3-tetraoxidobenzo[d][1,3,2]dithiazol-2-yl)phenyl)picolinamide]
% GluMax (mGluR4): 195% | EC50 (mGluR4): 1650 nM

SMILES: O=C(Nc1ccc(N2S(=O)(=O)c3ccccc3S2(=O)=O)cc1)C1CCCCC1 [drawing 138]
V/F [1]: 6.7 L | Cmax Brain ([1]; brain): 983.43 ± 188.76 ng/mL or g | AUC(0-8) Brain ([1]; brain): 6295.60 ± 876.30 | half-life [1, 2]: 12.2 h | Tmax [1, 3]: 0.5 h | Log BB ([1]; rat): 0.26 | Cmax ([1]; rat, plasma): 1930 ± 845 ng/mL | AUC(0-t) ([1]; rat, plasma): 3400 ± 2990 ng·h/mL | half-life [1, 4]: 1.67 h | Tmax [1, 5]: 0.5 h | CL/F ([1]; rat, plasma): 46.7 mL/min/kg

SMILES: O=S1(=O)c2ccccc2S(=O)(=O)N1c1ccc(Nc2ccccn2)nc1 [Example 18, 2-(6-(pyridin-2-ylamino)pyridin-3-yl)benzo[d][1,3,2]dithiazole 1,1,3,3-tetraoxide]
% GluMax (mGluR4): 73% | EC50 (mGluR4): 5450 nM

SMILES: O=C(Nc1ccc(N2S(=O)(=O)c3ccccc3S2(=O)=O)cc1)c1ccccc1 [drawing 139]
V/F [1]: 5.2 L | Cmax Brain ([1]; brain): 775.51 ± 90.00 ng/mL or g | AUC(0-8) Brain ([1]; brain): 405.32 ± 98.82 | Log BB [1]: −0.9 | Tmax [1, 3]: 1 h | Cmax ([1]; rat, plasma): 1470 ± 41 ng/mL | AUC(0-t) ([1]; rat, plasma): 3280 ± 244 ng·h/mL | half-life [1, 4]: 1.21 h | Tmax [1, 5]: 1 h | CL/F ([1]; rat, plasma): 51.2 mL/min/kg

SMILES: O=C(Nc1ccc(F)cn1)c1ccc(N2S(=O)(=O)c3ccccc3S2(=O)=O)cc1 [Example 15, N-(5-fluoropyridin-2-yl)-4-(1,1,3,3-tetraoxidobenzo[d][1,3,2]dithiazol-2-yl)benzamide]
% GluMax (mGluR4): 84% | EC50 (mGluR4): 272 nM
